Data published in patent US20200345637A1, “SUSPENSION COMPOSITIONS OF MULTI-TARGET INHIBITORS” (AIVIVA BIOPHARMA, INC., priority 2018, published 2020).
In brackets after ≈: the same amount, converted by molar mass. Several values for one entry are separate records, joined by “and”; a condition that tells them apart may be missing. Equal entries are not always repeated. Where two headings read alike, the source gives them in different places.

How the values were obtained:
[1] = systemic; literature or US label; cited from earlier work
[2] = Aqueous solubility of multi-target inhibitors; type: physicochemical; settings: for solubility: aqueous (not further specified)
Text: Non-limiting examples of the useful multi-target inhibitors and their physicochemical forms are given in Table 1 with aqueous solubility information.

[3] = Suspension physical testing: particle size, pH, osmolality, syringeability; type: physicochemical; parameters: API Raw Material PSD D50 / Formulated Suspension Particle size distribution D50 / API Raw Material PSD D90 / Formulated Suspension Particle size distribution D90: unit not given here; settings: for Formulated Suspension Syringeability: needle gauge passed
Text: (§1) Examples 1-3 depict the results of physical testing of some subject formulations.

[4] = Terminal sterilization and stability assay of formulated suspension; type: physicochemical; settings: for Assay (% of labeled claim) of Formulated Suspension, 4 months (40° C./75% RH) / Assay (% of labeled claim) of Formulated Suspension, 6 weeks (40° C./75% RH) / Assay (% of labeled claim) of Formulated Suspension, Initial: Gamma irradiation
Text: as §1

[5] = Pharmacokinetics and distribution after intraprostate injections in rats (Example 8); settings: for Plasma concentrations Mean: intraprostate injection
Method: (§2) This study investigated the pharmacokinetics and distribution of axitinib, sorafenib, pirfenidone, and riociguat after intraprostate injections in Wistar rats (n=6-7 per treatment group). Axitinib, sorafenib and riociguat, as 1% w/w suspension, and pirfenidone as 2.5% suspension were administered as single intraprostate injection (a total of 0.2 mL) on Days 15 and 29 in this 42-day study.

[6] = system: linear incision wound sites; experiment: Intradermal injection along linear incision wounds, histological evaluation; type: in vivo, minipigs; settings: for granulation tissue formation compared to vehicle treated control wounds / presence of myofibroblasts compared to vehicle treated control wounds: 2% suspension (sorafenib 1% suspension); for SMA staining / dermis fibrin / dermis fibroplasia / dermis provisional matrix / epidermis hyperplasia / inflammation / subcutis fibroplasia / subcutis mixed cell infiltrate: microscopic grade over 29 days
Method: The purpose of this study was to evaluate the suspension formulation when administered via intradermal injection with axitinib, nintedanib, sorafenib, and lenvatinib to the dorsal skin along linear incisions of minipigs.
Four male minipigs were dosed. Animals were dosed once via intradermal injection along the edges of each of 10 wound sites for each animal (5 wounds on each side of the dorsum [perpendicular to the spine], approximately 3 cm in length and 3 cm distance from the spine). Axitinib, nintedanib, lenvatinib, and the vehicle control article were administered via eight 0.1 mL intradermal injections around each respective wound site (one injection/cm on both sides of the wound), for a total volume of 0.8 mL/wound site. Sorafenib was administered via the same method at a volume of 0.2 mL/injection, for a total volume of 1.6 mL/wound site. The vehicle control article was Vehicle for Test Articles axitinib, nintedanib, lenvatinib, and sorafenib.
A generalized measure of inflammation, including inflammatory cell infiltrate, fibrin deposition, fibroplasia, epithelial hyperplasia and areas of tissue necrosis were assessed microscopically. […] For test agent treated wounds, all were graded as slight on Day 4, and there was no consistent difference over time as compared to the control group.

[7] = Local tolerance and ocular distribution, topical instillation three times daily for 5 days
Method: (§3) This study evaluated the local tolerance of vehicle, axitinib, pirfenidone, sorafenib and lenvatinib and ocular distribution of axitinib, sorafenib and lenvatinib (0.3% w/w) when administered by topical ocular instillation in the eyes of New Zealand white rabbits (n=6 per group). […] On Dosing Day 5, the animals were sacrificed and eyes were enucleated. Ocular and plasma concentrations of select compounds were measured by LC-MS/MS.

[8] = rabbit, in vivo
Method: as §3

[9] = rat, in vivo
Method: as §2

[10] = Skin pharmacokinetics after single intradermal injection in minipigs; settings: over 28 days
Method: Pharmacokinetics of axitinib and nintedanib was investigated after a single intradermal injection of 0.1% and 1% suspensions to the dorsum of Yucatan minipigs. The dosing volume was 0.1 mL for each injection. Concentrations of drugs in the epidermis and dermis over 28 days at the injection site and at 2 cm away from the injection site were measured using LCMS/MS method.

[11] = two weeks after the second biweekly intraprostate injection

Compound	terminal plasma half-life in man [1]	solubility [2]	API Raw Material PSD D50 [3]	API Raw Material PSD D90 [3]	Formulated Suspension Osmolality [3]	Formulated Suspension Particle size distribution D50 [3]	Formulated Suspension Particle size distribution D90 [3]	Formulated Suspension pH [3]	Formulated Suspension Syringeability [3]	Assay (% of labeled claim) of Formulated Suspension, 4 months (40° C./75% RH) [4]	Assay (% of labeled claim) of Formulated Suspension, 6 weeks (40° C./75% RH) [4]	Assay (% of labeled claim) of Formulated Suspension, Initial ([4]; initial)	Plasma concentrations Mean ([5]; Study Day 15, 24 h)	Plasma concentrations Mean ([5]; Study Day 29, 24 h)	Plasma concentrations Mean ([5]; Study Day 42, 0 h)	Prostate concentrations Mean [5, 11]	granulation tissue formation compared to vehicle treated control wounds [6]	presence of myofibroblasts compared to vehicle treated control wounds [6]	SMA staining [6]	dermis fibrin [6]	other results
CNC(=O)c1cc(Oc2ccc(NC(=O)Nc3ccc(Cl)c(C(F)(F)F)c3)c(F)c2)ccn1 [regorafenib, Regorafenib]	28 h																				
Cc1ccc(=O)n(-c2ccccc2)c1 [Pirfenidone]		3000 µg/mL (≈ 16200 µM)	D50: 57	D90: 74	312 mOsm/kg	D50: 44	D90: 72	7.6	Pass 23G	91.5 % of labeled claim and 94.9 % of labeled claim	89.9 % of labeled claim and 95.7 % of labeled claim	90.9 % of labeled claim and 97.2 % of labeled claim	0.381 ng/mL	0.454 ng/mL	BLQ	0.014 µg/g					
CNC(=O)c1cc(Oc2ccc(NC(=O)Nc3ccc(Cl)c(C(F)(F)F)c3)cc2)ccn1.Cc1ccc(S(=O)(=O)O)cc1 [Sorafenib Hemi Tosylate]			D50: 18	D90: 39	216 mOsm/kg	D50: 11	D90: 20	7.3	Pass 27G	99.9 % of labeled claim and 99.6 % of labeled claim	100.7 % of labeled claim and 100.4 % of labeled claim	98.9 % of labeled claim and 101.6 % of labeled claim				892 µg/g	delay in granulation tissue formation	prolonged presence of myofibroblasts	slight to minimal	minimal to none	Aqueous Solubility [2]: 6 µg/mL; dermis fibroplasia [6]: minimal to slight; dermis provisional matrix [6]: slight to none; epidermis hyperplasia [6]: none; inflammation [6]: moderate to minimal; subcutis fibroplasia [6]: minimal to moderate; subcutis mixed cell infiltrate [6]: slight to marked; drug release from prostate into systemic circulation ([5]; after single intraprostate injections): prolonged drug release; drug concentration in prostate [5, 11]: remained high; concentrations in the choroid and retina ([7]; 0.3% w/w topical instillation): significant concentrations; drug concentrations in anterior tissues of conjunctiva, sclera and cornea ([7]; 0.3% w/w topical instillation): high drug concentrations; plasma concentrations, mean (±SD) ([7]; Day 5 of dosing, 0.3% w/w 35 μl eyedrop three times daily): 5.09 (±1.27) ng/mL
CNC(=O)c1ccccc1Sc1ccc2c(/C=C/c3ccccn3)n[nH]c2c1 [Axitinib]	2 to 5 h	2 µg/mL (≈ 5.17 µM)	D50: 5.5	D90: 9.9	206 mOsm/kg	D50: 5.8	D90: 15.6	7.6	Pass 25G	95.2 % of labeled claim and 100.9 % of labeled claim	97.8 % of labeled claim and 98.5 % of labeled claim	102.0 % of labeled claim and 100.7 % of labeled claim	1.72 ng/mL	1.49 ng/mL	0.33 ng/mL	718 µg/g	delay in granulation tissue formation	prolonged presence of myofibroblasts	minimal to moderate	slight to moderate	Assay (% of labeled claim) of Formulated Suspension, 4 months (40° C./75% RH) (bottom) ([4]; Autoclave, bottom, tested at 3 months instead of 4 months, 40° C./75% RH): 103.2 % of labeled claim; Assay (% of labeled claim) of Formulated Suspension, Initial (bottom) ([4]; Autoclave, initial, bottom): 100.1 % of labeled claim; Assay (% of labeled claim) of Formulated Suspension, Initial (top) ([4]; Autoclave, initial, top): 98.7 % of labeled claim; Assay (% of labeled claim) of Formulated Suspension, 4 months (40° C./75% RH) (top) ([4]; Autoclave, top, tested at 3 months instead of 4 months, 40° C./75% RH): 101.2 % of labeled claim; dermis fibroplasia [6]: none to slight; dermis provisional matrix [6]: marked to moderate; epidermis hyperplasia [6]: minimal to slight; inflammation [6]: slight to moderate; subcutis fibroplasia [6]: none to moderate; subcutis mixed cell infiltrate [6]: moderate to minimal; concentrations in the choroid and retina [8]: significant concentrations; drug concentrations in anterior tissues of conjunctiva, sclera and cornea [8]: high drug concentrations; drug concentration in prostate [9]: remained high; drug release from prostate into systemic circulation [9]: prolonged drug release; mean concentration in the dermis, 2 cm away from the injection site ([10]; 0.1% intradermal injection): 1.2-8 ng/gm; mean concentration in the epidermis, 2 cm away from the injection site ([10]; 0.1% intradermal injection): 4.5-55.2 ng/gm; mean concentration in the dermis, 2 cm away from the injection site ([10]; 1% intradermal injection): 2.9-150 ng/gm; mean concentration in the epidermis, 2 cm away from the injection site ([10]; 1% intradermal injection): 42.3-723 ng/gm; concentration at 5 day of dosing ([7]; New Zealand White, rabbit, plasma, topical, 35 μl eyedrop of 0.3% w/w to the right eye, three times daily): 0.29 ng/mL
COC(=O)N(C)c1c(N)nc(-c2nn(Cc3ccccc3F)c3ncccc23)nc1N [Riociguat]		8 µg/mL (≈ 18.9 µM)	D50: 16	D90: 29	201 mOsm/kg	D50: 9	D90: 17	7.6	Pass 27G	99.9 % of labeled claim and 99.7 % of labeled claim	98.7 % of labeled claim and 98.0 % of labeled claim	101.9 % of labeled claim and 100.6 % of labeled claim									Prostate concentrations Mean ([9]; male, Wistar, 2 weeks after the second injection): 492 µg/g; drug concentration in prostate [9]: remained high; drug release from prostate into systemic circulation [9]: prolonged drug release
CCN(CC)CCNC(=O)c1c(C)[nH]c(/C=C2\C(=O)Nc3ccc(F)cc32)c1C [Sunitinib]		7 µg/mL (≈ 17.6 µM)	D50: 25	D90: 52	201 mOsm/kg	D50: 12	D90: 26	7.6	Pass 25G	100.0 % of labeled claim and 95.6 % of labeled claim	98.9 % of labeled claim and 96.5 % of labeled claim	96.7 % of labeled claim and 95.1 % of labeled claim									
